pKi: −log10 of the molar value.
How the values were obtained:
[1] = tested on: MT2; assay: Cellular antiviral activity (IC90) assessed on human MT-2 cells infected with HIV-RF; assay type: functional
[2] = molecular target: Human immunodeficiency virus type 1 protease (Human immunodeficiency virus 1, UniProt Q72874); assay: Compound was tested for binding affinity against HIV-1 Protease
[3] = Oral bioavailability in dog; assay type: ADME, organism-based, Canis lupus familiaris; conditions: in vivo
[4] = In vivo evaluation of maximum plasma concentration at a dose of 10 mg/kg; assay type: ADME, organism-based; set-up: dose 10 mg/kg
[5] = The half life in dog; assay type: ADME, organism-based, Canis lupus familiaris; conditions: in vivo

Row | Compound | IC90 [1] | pKi [2] | bioavailability [3] | Cmax [4] | half-life [5]
1 | CNc1cccc(CN2C(=O)N(Cc3cccc(N)c3)[C@H](Cc3ccc4c(c3)OCCO4)[C@H](O)[C@@H](O)[C@H]2Cc2ccc3c(c2)OCCO3)c1 | 27 nM | 9.96 |  |  | 
2 | O=C1N(Cc2ccccc2)[C@H](Cc2ccc3ccccc3c2)[C@H](O)[C@@H](O)[C@@H](Cc2ccc3ccccc3c2)N1Cc1ccccc1 | 3200 nM |  |  |  | 
3 | CNc1cccc(CN2C(=O)N(Cc3cccc(NC)c3)[C@H](Cc3ccc4c(c3)OCCO4)[C@H](O)[C@@H](O)[C@H]2Cc2ccc3c(c2)OCCO3)c1 | 8.7 nM | 9.85 | 4.6% | 220 ng/mL | 48 min
4 | O=C1N(Cc2ccccc2)[C@H](Cc2ccccc2)[C@H](O)[C@@H](O)[C@@H](Cc2ccccc2)N1Cc1ccccc1 | 790 nM |  |  |  | 
5 | CC(=O)c1cc(CN2C(=O)N(Cc3ccc(F)c(C(C)=O)c3)[C@H](Cc3ccc4c(c3)OCO4)[C@H](O)[C@@H](O)[C@H]2Cc2ccc3c(c2)OCO3)ccc1F | 265 nM | 8.82 |  |  | 
6 | O=C1N(Cc2ccc3ccccc3c2)[C@H](Cc2ccc3c(c2)OCCO3)[C@H](O)[C@@H](O)[C@@H](Cc2ccc3c(c2)OCCO3)N1Cc1ccc2ccccc2c1 | 98 nM | 10.40 |  |  | 
7 | O=C1N(Cc2ccccc2)[C@H](Cc2ccc3c(c2)CCO3)[C@H](O)[C@@H](O)[C@@H](Cc2ccc3c(c2)CCO3)N1Cc1ccccc1 | 305 nM |  |  |  | 
8 | O=C1N(Cc2ccccc2)[C@H](Cc2ccc3c(c2)OCCO3)[C@H](O)[C@@H](O)[C@@H](Cc2ccc3c(c2)OCCO3)N1Cc1ccccc1 | 112 nM | 9.36 |  |  | 
9 | CC(=O)c1cccc(CN2C(=O)N(Cc3cccc(C(C)=O)c3)[C@H](Cc3ccc4c(c3)CCO4)[C@H](O)[C@@H](O)[C@H]2Cc2ccc3c(c2)CCO3)c1 | 10 nM | 10.32 |  |  | 
10 | COc1cc(C[C@@H]2[C@H](O)[C@@H](O)[C@@H](Cc3cc(OC)cc(OC)c3)N(Cc3ccccc3)C(=O)N2Cc2ccccc2)cc(OC)c1 | > 5000 nM | 8.10 |  |  | 
11 | CC(=O)c1cc(CN2C(=O)N(Cc3ccc(F)c(C(C)=O)c3)[C@H](Cc3ccc4c(c3)OCCO4)[C@H](O)[C@@H](O)[C@H]2Cc2ccc3c(c2)OCCO3)ccc1F | 84 nM | 9.19 |  |  | 
12 | O=C1N(Cc2ccc(CO)cc2)[C@H](Cc2ccc3c(c2)OCCO3)[C@H](O)[C@@H](O)[C@@H](Cc2ccc3c(c2)OCCO3)N1Cc1ccc(CO)cc1 | 83 nM | 10.30 |  |  | 
13 | CC(=O)c1cccc(CN2C(=O)N(Cc3cccc(C(C)=O)c3)[C@H](Cc3ccc4c(c3)OCO4)[C@H](O)[C@@H](O)[C@H]2Cc2ccc3c(c2)OCO3)c1 | 14.7 nM | 10.37 |  |  | 
14 | Nc1cccc(CN2C(=O)N(Cc3cccc(N)c3)[C@H](Cc3ccc4c(c3)CCO4)[C@H](O)[C@@H](O)[C@H]2Cc2ccc3c(c2)CCO3)c1 | 30.6 nM | 9.96 |  |  | 
15 | O=C1N(CC2CC2)[C@H](Cc2ccc3c(c2)OCCO3)[C@H](O)[C@@H](O)[C@@H](Cc2ccc3c(c2)OCCO3)N1CC1CC1 | 928 nM | 9.57 |  |  | 
16 | CC(=O)c1cccc(CN2C(=O)N(Cc3cccc(C(C)=O)c3)[C@H](Cc3ccc4c(c3)N(C)CCO4)[C@H](O)[C@@H](O)[C@H]2Cc2ccc3c(c2)N(C)CCO3)c1 | 16.4 nM | 10.10 |  |  | 
17 | Nc1cccc(CN2C(=O)N(Cc3cccc(N)c3)[C@H](Cc3ccc4c(c3)OCCO4)[C@H](O)[C@@H](O)[C@H]2Cc2ccc3c(c2)OCCO3)c1 | 40 nM | 10.40 |  |  | 
18 | COc1cc(C[C@@H]2[C@H](O)[C@@H](O)[C@@H](Cc3cc(OC)cc(OC)c3)N(Cc3cccc(C(C)=O)c3)C(=O)N2Cc2cccc(C(C)=O)c2)cc(OC)c1 | 46.4 nM | 9.40 |  |  | 
19 | CC(=O)c1cccc(CN2C(=O)N(Cc3cccc(C(C)=O)c3)[C@H](Cc3ccc4c(c3)OCCO4)[C@H](O)[C@@H](O)[C@H]2Cc2ccc3c(c2)OCCO3)c1 | 4.2 nM | 10.40 |  |  | 
20 | O=C1N(Cc2ccccc2)[C@H](Cc2ccc3c(c2)OCO3)[C@H](O)[C@@H](O)[C@@H](Cc2ccc3c(c2)OCO3)N1Cc1ccccc1 | 504 nM | 9.00 |  |  | 
21 | CN1CCOc2ccc(C[C@@H]3[C@H](O)[C@@H](O)[C@@H](Cc4ccc5c(c4)N(C)CCO5)N(Cc4ccccc4)C(=O)N3Cc3ccccc3)cc21 | 218 nM | 9.15 |  |  | 
22 | COc1ccc(C[C@@H]2[C@H](O)[C@@H](O)[C@@H](Cc3ccc(OC)c(OC)c3)N(Cc3ccccc3)C(=O)N2Cc2ccccc2)cc1OC | 640 nM | 8.19 |  |  | 
23 | O=C1N(Cc2ccc(O)cc2)[C@H](Cc2ccc3c(c2)OCCO3)[C@H](O)[C@@H](O)[C@@H](Cc2ccc3c(c2)OCCO3)N1Cc1ccc(O)cc1 | 107 nM | 10.52 |  |  | 
24 | CNc1cccc(CN2C(=O)N(Cc3cccc(NC)c3)[C@H](Cc3ccc4c(c3)CCO4)[C@H](O)[C@@H](O)[C@H]2Cc2ccc3c(c2)CCO3)c1 | 61.6 nM | 9.70 |  |  | 

From ChEMBL document CHEMBL1130027, “Improved P1/P1' substituents for cyclic urea based HIV-1 protease inhibitors: synthesis, structure-activity relationship, and X-ray crystal structure analysis” (J Med Chem, 1997)
